Key:
[1] = tested on: large (Lg) crabgrass; test: Test A postemergence; format: in vivo, Digitaria sanguinalis; settings: 0 to 100 scale where 0 is no effect and 100 is complete control
In short: (§1)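 Visual injury scored 0–100 (100 = complete control) against untreated controls about 10 days after treatment in a greenhouse. Test chemicals, formulated with surfactant in non-phytotoxic solvent, were sprayed on soil preemergence or on 2-10 cm, one- to two-leaf plants postemergence.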

[2] = tested on: pigweed; test: Test A preemergence; format: in vivo, Amaranthus retroflexus
In short: as §1

[3] = tested on: corn; test: Test A postemergence; format: in vivo, Zea mays; settings: 0 to 100 scale where 0 is no effect and 100 is complete control
In short: as §1

[4] = tested on: large (Lg) crabgrass; test: Test A preemergence; format: in vivo, Digitaria sanguinalis
In short: as §1

[5] = tested on: johnsongrass; test: Test C postemergence; format: in vivo, Sorghum halepense; settings: for Plant response rating, Johnsongrass: Postemergence
In short: (§2)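 Plants were kept under greenhouse conditions for 13–15 days following spray. Pre-emergent application went to soil (loam–sand), post-emergent to foliage at 1–4 leaves. Evaluation: visual, percent control against untreated checks.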

[6] = tested on: kochia; test: Test C postemergence; format: in vivo, Kochia scoparia; settings: for Plant response rating, Kochia: Postemergence
In short: as §2

[7] = tested on: Italian ryegrass; test: Test C postemergence; format: in vivo, Lolium multiflorum; settings: for Plant response rating, Ryegrass, Italian: Postemergence, scale 0 to 100 (0 no effect, 100 complete control)
In short: as §2

[8] = tested on: corn; test: Test C postemergence; format: in vivo, Zea mays; settings: for Plant response rating, Corn: Postemergence
In short: as §2

[9] = tested on: velvetleaf; test: Test A postemergence; format: in vivo, Abutilon theophrasti; settings: 0 to 100 scale where 0 is no effect and 100 is complete control
In short: as §1

[10] = tested on: pigweed; test: Test A postemergence; format: in vivo, Amaranthus retroflexus; settings: 0 to 100 scale where 0 is no effect and 100 is complete control
In short: as §1

[11] = tested on: morningglory; test: Test A postemergence; format: in vivo, Ipomoea spp.; settings: 0 to 100 scale where 0 is no effect and 100 is complete control
In short: as §1

[12] = tested on: soybean; test: Test C postemergence; format: in vivo, Glycine max; settings: for Plant response rating, Soybean: Postemergence, scale 0 to 100 (0 no effect, 100 complete control)
In short: as §2

[13] = tested on: velvetleaf; test: Test A preemergence; format: in vivo, Abutilon theophrasti; settings: 125 g ai/ha, 0 to 100 scale where 0 is no effect and 100 is complete control
In short: as §1

[14] = tested on: waterhemp; test: Test C postemergence; format: in vivo, Amaranthus rudis; settings: for Plant response rating, Waterhemp: Postemergence, scale 0 to 100 (0 no effect, 100 complete control)
In short: as §2

[15] = tested on: wild oat; test: Test C postemergence; format: in vivo, Avena fatua; settings: for Plant response rating, Oat, Wild: Postemergence, scale 0 to 100 (0 no effect, 100 complete control)
In short: as §2

[16] = tested on: giant foxtail; test: Test C postemergence; format: in vivo, Setaria faberii; settings: for Plant response rating, Foxtail, Giant: Postemergence
In short: as §2

[17] = tested on: pigweed; test: Test C postemergence; format: in vivo, Amaranthus retroflexus; settings: for Plant response rating, Pigweed: Postemergence, scale 0 to 100 (0 no effect, 100 complete control)
In short: as §2

[18] = tested on: barnyardgrass; test: Test C postemergence; format: in vivo, Echinochloa crus-galli; settings: for Plant response rating, Barnyardgrass: Postemergence
In short: as §2

[19] = 125 g ai/ha, 0 to 100 scale where 0 is no effect and 100 is complete control
[20] = 500 g ai/ha, 0 to 100 scale, 0 no effect, 100 complete control, approx. 10 days
[21] = 16 g ai/ha, postemergence, visual rating, scale 0 to 100 (0 no effect, 100 complete control), 13 to 15 days
[22] = 31 g ai/ha, scale 0 to 100 (0 no effect, 100 complete control), 13 to 15 days
[23] = 62 g ai/ha, scale 0 to 100 (0 no effect, 100 complete control)

## N#Cc1cccc(Oc2ncc(Cl)cn2)c1-n1cc(OC(F)F)cn1 [Compound 97]
[1]; 125 g ai/ha
  Plant response rating, Crabgrass, Large: 90
[1]; 500 g ai/ha
  Plant response rating, Crabgrass, Large: 100
[2]; [19]
  Plant response rating, Pigweed: 100
[2]; [20]
  Pigweed plant response rating: 100
[3]; 125 g ai/ha
  Plant response rating, Corn: 60
[3]; 500 g ai/ha
  Plant response rating, Corn: 90
[4]; [19]
  Plant response rating, Crabgrass, Large: 100
[4]; [20]
  Crabgrass, Large plant response rating: 100
[5]; [21]
  Johnsongrass plant response rating: 5
[5]; 125 g ai/ha, postemergence
  Plant response rating (0 to 100), Johnsongrass: 5
[5]; [22]
  Plant response rating, Johnsongrass: 5
[5]; [23]
  Plant response rating, Johnsongrass: 15
[6]; [21]
  Kochia plant response rating: 80
[6]; 125 g ai/ha, postemergence
  Plant response rating (0 to 100), Kochia: 100
[6]; [22]
  Plant response rating, Kochia: 90
[6]; [23]
  Plant response rating, Kochia: 95
[7]; 125 g ai/ha, postemergence
  Plant response rating (0 to 100), Ryegrass, Italian: 15
[7]; 31 g ai/ha, 13 to 15 days
  Plant response rating, Ryegrass, Italian: 5
[7]; 62 g ai/ha
  Plant response rating, Ryegrass, Italian: 5
[8]; [21]
  Corn plant response rating: 5
[8]; 125 g ai/ha, postemergence
  Plant response rating (0 to 100), Corn: 15
[8]; [22]
  Plant response rating, Corn: 5
[8]; [23]
  Plant response rating, Corn: 10
[9]; 125 g ai/ha
  Plant response rating, Velvetleaf: 100
[9]; 500 g ai/ha
  Plant response rating, Velvetleaf: 100
[10]; 125 g ai/ha
  Plant response rating, Pigweed: 100
[10]; 500 g ai/ha
  Plant response rating, Pigweed: 100
[11]; 125 g ai/ha
  Plant response rating, Morningglory: 90
[11]; 500 g ai/ha
  Plant response rating, Morningglory: 100
[12]; 125 g ai/ha, postemergence
  Plant response rating (0 to 100), Soybean: 95
[12]; 31 g ai/ha, 13 to 15 days
  Plant response rating, Soybean: 60
[12]; 62 g ai/ha
  Plant response rating, Soybean: 90
[13]
  Plant response rating, Velvetleaf: 100
[14]; 125 g ai/ha, postemergence
  Plant response rating (0 to 100), Waterhemp: 95
[14]; 31 g ai/ha, 13 to 15 days
  Plant response rating, Waterhemp: 85
[14]; 62 g ai/ha
  Plant response rating, Waterhemp: 90
[15]; 125 g ai/ha, postemergence
  Plant response rating (0 to 100), Oat, Wild: 25
[15]; 31 g ai/ha, 13 to 15 days
  Plant response rating, Oat, Wild: 10
[15]; 62 g ai/ha
  Plant response rating, Oat, Wild: 15
[16]; [21]
  Foxtail, Giant plant response rating: 10
[16]; 125 g ai/ha, postemergence
  Plant response rating (0 to 100), Foxtail, Giant: 15
[16]; [22]
  Plant response rating, Foxtail, Giant: 5
[16]; [23]
  Plant response rating, Foxtail, Giant: 10
[17]; 125 g ai/ha, postemergence
  Plant response rating (0 to 100), Pigweed: 95
[17]; 31 g ai/ha, 13 to 15 days
  Plant response rating, Pigweed: 85
[17]; 62 g ai/ha
  Plant response rating, Pigweed: 85
[18]; [21]
  Barnyardgrass plant response rating: 10
[18]; 125 g ai/ha, postemergence
  Plant response rating (0 to 100), Barnyardgrass: 15
[18]; [22]
  Plant response rating, Barnyardgrass: 10
[18]; [23]
  Plant response rating, Barnyardgrass: 10

Source: patent publication US9695155B2, “Herbicidal substituted pyrimidinyloxy benzene compounds” (E. I. DU PONT DE NEMOURS AND COMPANY, priority 2013, dated 2017)
